According to BindingDB's records for patent US20250313563 (The Broad Institute, 2025):
Where “and” joins values, the source holds several entries; their conditions need not be identical. Equal values may be shown once.

Legend:
[1] = biological target: Glycogen synthase kinase-3 alpha (Homo sapiens, UniProt P49840); experiment: TR-FRET Assay
Outline: (§1)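 Signal is measured as TR-FRET between a terbium anti-phospho-Ser641 antibody and streptavidin-d2, added after an EDTA quench. Compounds are preincubated 30 min in assay buffer.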

[2] = biological target: Glycogen synthase kinase-3 beta (Homo sapiens, UniProt P49841); experiment: TR-FRET Assay
Outline: as §1

Sequence of Glycogen synthase kinase-3 alpha (P49840 whole entry): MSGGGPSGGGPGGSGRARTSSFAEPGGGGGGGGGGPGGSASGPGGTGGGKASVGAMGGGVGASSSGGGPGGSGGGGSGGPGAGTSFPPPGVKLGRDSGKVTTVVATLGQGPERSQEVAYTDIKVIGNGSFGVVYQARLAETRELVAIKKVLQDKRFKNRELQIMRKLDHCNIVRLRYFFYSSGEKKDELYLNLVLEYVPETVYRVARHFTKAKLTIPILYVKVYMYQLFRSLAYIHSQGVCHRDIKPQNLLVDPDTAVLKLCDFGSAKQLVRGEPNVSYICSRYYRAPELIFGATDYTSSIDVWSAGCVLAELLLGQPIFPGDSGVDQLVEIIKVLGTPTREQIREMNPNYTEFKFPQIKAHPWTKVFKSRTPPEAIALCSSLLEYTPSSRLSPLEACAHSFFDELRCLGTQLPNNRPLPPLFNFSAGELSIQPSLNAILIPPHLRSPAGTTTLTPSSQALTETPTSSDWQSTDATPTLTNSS
Sequence of Glycogen synthase kinase-3 beta (P49841 whole entry): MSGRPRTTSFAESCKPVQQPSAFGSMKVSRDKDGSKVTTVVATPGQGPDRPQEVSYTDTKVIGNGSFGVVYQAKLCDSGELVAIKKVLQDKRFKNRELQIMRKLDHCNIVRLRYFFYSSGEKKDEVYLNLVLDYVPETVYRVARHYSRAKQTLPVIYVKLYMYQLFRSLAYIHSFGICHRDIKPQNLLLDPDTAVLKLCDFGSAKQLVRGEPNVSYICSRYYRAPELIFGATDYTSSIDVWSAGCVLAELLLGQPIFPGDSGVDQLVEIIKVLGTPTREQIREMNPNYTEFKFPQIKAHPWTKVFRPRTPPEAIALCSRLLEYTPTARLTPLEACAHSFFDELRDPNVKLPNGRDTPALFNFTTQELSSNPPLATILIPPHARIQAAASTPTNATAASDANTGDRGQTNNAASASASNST

IC50 [1]	IC50 [2]	SMILES
< 100 nM	100 to 1000 nM	COc1ccc(C)c(S(=O)(=O)N2CCC3(CC2)C2=C(N=NC2)NC2=C3C(=O)CC(C)(C)C2)c1 [US20250313563, Compound 947245]
< 100 nM	100 to 1000 nM	CC[C@]1(c2ccccc2)C2=C(CC(C)(C)CC2=O)NC2N=NC(C(F)F)=C21 (stereo partly specified) [US20250313563, Compound 874511]
< 100 nM	< 100 nM	CC1(C)CC(=O)C2=C(C1)NC1=C(CN=N1)C21COC2(CN(C(=O)C(F)(F)F)C2)C1 (stereo unspecified) [US20250313563, Compound 947280]
< 100 nM	< 100 nM	CC1N=NC2=C1C(C)(c1cccc(C(F)(F)F)c1)C1=C(CC(C)(C)CC1=O)N2 (stereo unspecified) [US20250313563, Compound 811556]
100 to 1000 nM	100 to 1000 nM	CC[C@@]1(c2ccccc2)C2=C(CC(C)(C)CC2=O)NC2N=NC(C(F)F)=C21 (stereo partly specified) [US20250313563, Compound 874510]
100 to 1000 nM	100 to 1000 nM	CC[C@]1(c2cccc(C(C)C)c2)C2=CN=NC2NC2=C1C(=O)NC(C)(C)C2 (stereo partly specified) [US20250313563, Compound 949761]
1000 to 5000 nM	100 to 1000 nM	CN(C)S(=O)(=O)c1cccc([C@]2(C)C3=C(CC(C)(C)CC3=O)NC3=C2C(CC(C)(C)C)N=N3)c1 (stereo partly specified) [US20250313563, Compound 126012]
< 100 nM and 100 to 1000 nM	100 to 1000 nM and > 5000 nM	CC[C@]1(c2cccc(C(F)(F)F)c2)C2=CN=NC2NC2=C1C(=O)N(c1cccnc1)CC2 (stereo partly specified) [US20250313563, Compound 947432]
< 100 nM	1000 to 5000 nM	CC[C@@]1(c2cccc(-c3ccnc(C)c3)c2)C2=CN=NC2NC2=C1C(=O)C[C@H](C)C2 (stereo partly specified) [US20250313563, Compound 932657]
100 to 1000 nM	< 100 nM	CC(C)(C)CC1=C2C(N=N1)NC1=C(C(=O)CC(C)(C)C1)C21CCc2c(F)cccc21 (stereo unspecified) [US20250313563, Compound 789524]
< 100 nM	< 100 nM	CC[C@]1(c2cccc(N3CCOCC3)c2)C2=C(CC(C)(C)CC2=O)NC2N=NC(C(F)(F)F)=C21 (stereo partly specified) [US20250313563, Compound 816885]
100 to 1000 nM	> 5000 nM	CC[C@]1(c2cccc(-c3ccnc(C)c3)c2)C2=C(CC(C)(C)NC2=O)NC2N=NC(Cl)=C21 (stereo partly specified) [US20250313563, Compound 949421]
< 100 nM	< 100 nM	CC[C@]1(c2cccc(N(C)c3cccc(F)n3)c2)C2=CN=NC2NC2=C1C(=O)CC(C)(C)C2 (stereo partly specified) [US20250313563, Compound 932636]
100 to 1000 nM	100 to 1000 nM	CC1(C)CC(=O)C2=C(C1)NC1=C(CN=N1)[C@]21CCOC2(CCC2)C1 [US20250313563, Compound 897756]
< 100 nM	100 to 1000 nM	CCC1(c2cccc(-c3ccnc(C(F)(F)F)c3)c2)C2=CN=NC2NC2=C1C(=O)CC(C)(C)C2 (stereo unspecified) [US20250313563, Compound 913348]
< 100 nM	100 to 1000 nM	CC[C@@]1(c2cccc(Br)c2)C2=CN=NC2NC2=C1C(=O)C[C@H](C)C2 (stereo partly specified) [US20250313563, Compound 810487]
< 100 nM	100 to 1000 nM	CC[C@@]1(c2cccc(N3CCCC3)c2)C2=CN=NC2NC2=C1C(=O)CC(C)(C)C2 (stereo partly specified) [US20250313563, Compound 810510]
< 100 nM	100 to 1000 nM	CC1(C)CC(=O)C2=C(NC3=C(CN=N3)C23CCN(S(=O)(=O)c2ccccc2C(F)F)CC3)[C@@H]1F [US20250313563, Compound 951846]
< 100 nM	100 to 1000 nM	CCC1(c2cccc(C(F)(F)F)c2)C2=C(N=NC2)NC2=C1C(=O)N(Cc1ccccc1)C2C (stereo unspecified) [US20250313563, Compound 917162]

IC50 [1]	IC50 [2]	SMILES
100 to 1000 nM	1000 to 5000 nM	CCC1(c2cccc(C(F)(F)F)c2)C2=C(CC(C)(C)CC2=O)NC2N=NC(C(F)(F)F)=C21 (stereo unspecified) [US20250313563, Compound 789584]
< 100 nM	100 to 1000 nM	CCC1(c2cccc(-c3cnn(C4CC4)c3)c2)C2=C(CC(C)(C)CC2=O)NC2N=NC(C)=C21 (stereo unspecified) [US20250313563, Compound 883997]
< 100 nM	100 to 1000 nM	O=C1CC2(CCCC2)CC2=C1C1(CCOCC1)C1=C(N=NC1)N2 [US20250313563, Compound 893308]
< 100 nM	< 100 nM and 100 to 1000 nM	CC[C@@]1(c2cccc(OC)c2)C2=C(CC(C)(C)CC2=O)NC2N=NC(C(F)(F)F)=C21 (stereo partly specified) [US20250313563, Compound 884117]
< 100 nM	< 100 nM and 100 to 1000 nM	CC[C@]1(c2cccc(N(C)c3ncccn3)c2)C2=CN=NC2NC2=C1C(=O)CC(C)(C)C2 (stereo partly specified) [US20250313563, Compound 911980]
< 100 nM	100 to 1000 nM	CC[C@@]1(c2cccc(C(F)(F)F)c2)C2=CN=NC2NC2=C1C(=O)N[C@H](C(C)(C)C)C2 (stereo partly specified) [US20250313563, Compound 945922]
< 100 nM	100 to 1000 nM	CC[C@@]1(c2cccc(C(F)(F)F)c2)C2=CN=NC2NC2=C1C(=O)C[C@@]1(CCN(C)C1=O)C2 (stereo partly specified) [US20250313563, Compound 950326]
100 to 1000 nM	1000 to 5000 nM	CC[C@]1(c2ccccc2)C2=CN=NC2NC2=C1C(=O)C[C@](C)(COC)C2 (stereo partly specified) [US20250313563, Compound 816875]
> 5000 nM	> 5000 nM	CC[C@]1(c2cccc(C(F)(F)F)c2)C2=C(N=NC2)NC2=C1C(=O)N(C)C2(C)C [US20250313563, Compound 918251]
< 100 nM	< 100 nM	CCC1(c2cccc(-c3cncn3C)c2)C2=C(CC(C)(C)NC2=O)NC2N=NC(C)=C21 (stereo unspecified) [US20250313563, Compound 947565]
< 100 nM and 100 to 1000 nM	100 to 1000 nM and > 5000 nM	CC[C@]1(c2cccc(N(C)c3ncccn3)c2)C2=C(N=NC2)NC2=C1C(=O)C(C)(C)C2 [US20250313563, Compound 952212]
< 100 nM	100 to 1000 nM	CC[C@@]1(c2cccc(-c3cnn4c3CC(C)(C)CC4)c2)C2=CN=NC2NC2=C1C(=O)NC(C)(C)C2 (stereo partly specified) [US20250313563, Compound 950564]
< 100 nM	< 100 nM	CCCS(=O)(=O)c1cccc(C2(CC)C3=CN=NC3NC3=C2C(=O)CC(C)(C)C3)c1 (stereo unspecified) [US20250313563, Compound 917131]
< 100 nM	< 100 nM	CCCn1nccc1-c1cccc(C2(CC)C3=CN=NC3NC3=C2C(=O)CC(C)(C)C3)c1 (stereo unspecified) [US20250313563, Compound 929400]
> 5000 nM	> 5000 nM	CC[C@]1(c2cccc(N3CCOCC3)c2)C2=CN=NC2NC2=C1C(=O)CC(C)(C)C2 (stereo partly specified) [US20250313563, Compound 810364]
> 5000 nM	> 5000 nM	CC[C@]1(c2cccc(-c3cnn(CCOC)c3)c2)C2=C(CC(C)(C)CC2=O)NC2N=NC(C)=C21 (stereo partly specified) [US20250313563, Compound 913042]
100 to 1000 nM	100 to 1000 nM	CC1(C)CC(=O)C2=C(C1)NC1=C(CN=N1)[C@@]21CCOC(C)(C)C1 [US20250313563, Compound 924299]
< 100 nM	< 100 nM	CC(C)(C)CC1=C2C(N=N1)NC1=C(C(=O)CC(C)(C)C1)[C@@]21CCc2c(F)cccc21 (stereo partly specified) [US20250313563, Compound 791257]
100 to 1000 nM	100 to 1000 nM	CC[C@]1(c2cccc(-c3ccnc(C)c3)c2)C2=C(CC(C)(C)NC2=O)NC2N=NC(C(F)F)=C21 (stereo partly specified) [US20250313563, Compound 950162]
